Results: patent US6737383B1, “Herbicidal oxadiazolidines” (priority 1999, dated 2004)

Key:
bedstraw = test: Test B pre/postemergence bedstraw; type: in vivo, Galium aparine
In short: (§1)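 Herbicidal effect was estimated by eye on a ten-point control scale after plants spent twelve to sixteen days in a greenhouse following soil or foliar treatment. Foliar sprays targeted plants at one to four leaves; all doses were formulated in a non-phytotoxic solvent with surfactant.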

blackgrass = test: Test B pre/postemergence blackgrass; type: in vivo, Alopecurus myosuroides
In short: as §1

surinam grass = test: Test B pre/postemergence surinam grass; type: in vivo, Brachiaria decumbens
In short: as §1

cocklebur = test: Test B pre/postemergence cocklebur; type: in vivo, Xanthium strumarium
In short: as §1

corn = test: Test B pre/postemergence corn; type: in vivo, Zea mays
In short: as §1

crabgrass = test: Test B pre/postemergence crabgrass; type: in vivo, Digitaria sanguinalis
In short: as §1

giant foxtail = test: Test B pre/postemergence giant foxtail; type: in vivo, Setaria faberii
In short: as §1

morningglory = test: Test B pre/postemergence morningglory; type: in vivo, Ipomoea hederacea
In short: as §1

pigweed = test: Test B pre/postemergence pigweed; type: in vivo, Amaranthus retroflexus
In short: as §1

rape = test: Test B pre/postemergence rape; type: in vivo, Brassica napus
In short: as §1

soybean = test: Test B pre/postemergence soybean; type: in vivo, Glycine max
In short: as §1

sugar beet = test: Test B pre/postemergence sugar beet; type: in vivo, Beta vulgaris
In short: as §1

velvetleaf = test: Test B pre/postemergence velvetleaf; type: in vivo, Abutilon theophrasti
In short: as §1

wheat = test: Test B pre/postemergence wheat; type: in vivo, Triticum aestivum
In short: as §1

wild oat = test: Test B pre/postemergence wild oat; type: in vivo, Avena fatua
In short: as §1

purple nutsedge = test: Test B pre/postemergence purple nutsedge; type: in vivo, Cyperus rotundus
In short: as §1

rice = test: Test B flood test rice; type: in vivo, Oryza sativa; conditions: for Rice plant response rating (0 to 10 scale, 0 is no effect, 10 is complete control): Rate 125 g/ha, under heading Pre-emergence
In short: (§2)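 Flood test on plants grown to the 2-leaf stage; treated plants kept in greenhouse twelve to sixteen days, then visually rated against controls on a 0 (no effect) to 10 (complete control) scale.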

smallflower flatsedge = test: Test B flood test smallflower flatsedge; type: in vivo, Cyperus difformis; conditions: for S. Flatsedge plant response rating (0 to 10 scale, 0 is no effect, 10 is complete control): Rate 125 g/ha, under heading Pre-emergence
In short: as §2

duck salad = test: Test B flood test duck salad; type: in vivo, Heteranthera limosa; conditions: for Ducksalad plant response rating (0 to 10 scale, 0 is no effect, 10 is complete control): Rate 125 g/ha, under heading Pre-emergence
In short: as §2

bamyardgrass = test: Test B flood test barnyardgrass; type: in vivo, Echinochloa crus-galli; conditions: for Barnyardgrass plant response rating (0 to 10 scale, 0 is no effect, 10 is complete control): Rate 125 g/ha, under heading Pre-emergence
In short: as §2

[1] = Postemergence, Rate 125 g/ha, scale of 0 to 10 where 0 is no effect and 10 is complete control
[2] = Preemergence, Rate 125 g/ha, scale of 0 to 10 where 0 is no effect and 10 is complete control
[3] = Rate 250 g/ha, Postemergence, scale 0 to 10, 0 is no effect, 10 is complete control
[4] = Postemergence, Rate 1000 g/ha, scale 0 to 10 (0 no effect, 10 complete control)
[5] = Preemergence, Rate 250 g/ha, scale 0 to 10 (0 no effect, 10 complete control)
[6] = Preemergence, Rate 500 g/ha, scale of 0 to 10 where 0 is no effect and 10 is complete control
[7] = Rate 500 g/ha, Postemergence, scale 0 to 10, 0 is no effect, 10 is complete control
[8] = Rate 1000 g/ha, Preemergence, scale 0 to 10 (0 no effect, 10 complete control)
[9] = Pre-emergence, Rate 1000 g/ha, scale 0 to 10 (0 no effect, 10 complete control)
[10] = flood test species, visual evaluation after twelve to sixteen days
[11] = Rate 250 g/ha, Pre-emergence (flood test species), scale 0 to 10, 0 is no effect, 10 is complete control
[12] = Rate 500 g/ha, Pre-emergence section of Table B, 0 to 10 scale (0 no effect, 10 complete control)
[13] = Preemergence, Rate 62 g/ha, scale of 0 to 10 where 0 is no effect and 10 is complete control
[14] = Rate 62 g/ha, flood test species, Pre-emergence, visual evaluation after twelve to sixteen days

CCOC(=O)CC(C(=O)OCC)n1c(=O)on(C(=O)N(c2ccc(Cl)cc2)C(C)C)c1=O (stereo not drawn) [Compound 681]
Bedstraw plant response rating (bedstraw; [1]): 0
Plant response rating, Bedstraw (bedstraw; [2]): 0
Bedstraw plant response rating (bedstraw; [3]): 0
Blackgrass plant response rating (blackgrass; [1]): 0
Blackgrass plant response rating (blackgrass; [4]): 4
Plant response rating, Blackgrass (blackgrass; [2]): 0
Plant response rating, Blackgrass (blackgrass; [5]): 1
Plant response rating, Blackgrass (blackgrass; [6]): 3
Blackgrass plant response rating (blackgrass; [3]): 0
Blackgrass plant response rating (blackgrass; [7]): 0
Plant response rating, Blackgrass (blackgrass; [8]): 6
B. signalgrass plant response rating (surinam grass; [1]): 0
B. signalgrass plant response rating (surinam grass; [4]): 0
Plant response rating, B. signalgrass (surinam grass; [2]): 0
Plant response rating, B. signalgrass (surinam grass; [5]): 0
Plant response rating, B. signalgrass (surinam grass; [6]): 0
B. signalgrass plant response rating (surinam grass; [3]): 0
B. signalgrass plant response rating (surinam grass; [7]): 0
Plant response rating, B. signalgrass (surinam grass; [8]): 4
Cocklebur plant response rating (cocklebur; [1]): 0
Cocklebur plant response rating (cocklebur; [4]): 0
Plant response rating, Cocklebur (cocklebur; [2]): 0
Plant response rating, Cocklebur (cocklebur; [5]): 0
Plant response rating, Cocklebur (cocklebur; [6]): 0
Cocklebur plant response rating (cocklebur; [3]): 0
Cocklebur plant response rating (cocklebur; [7]): 0
Corn plant response rating (corn; [1]): 0
Corn plant response rating (corn; [4]): 0
Plant response rating, Corn (corn; [2]): 0
Plant response rating, Corn (corn; [5]): 0
Plant response rating, Corn (corn; [6]): 0
Corn plant response rating (corn; [3]): 0
Corn plant response rating (corn; [7]): 0
Plant response rating, Corn (corn; [8]): 0
Crabgrass plant response rating (crabgrass; [1]): 0
Crabgrass plant response rating (crabgrass; [4]): 2
Plant response rating, Crabgrass (crabgrass; [2]): 0
Plant response rating, Crabgrass (crabgrass; [5]): 2
Plant response rating, Crabgrass (crabgrass; [6]): 7
Crabgrass plant response rating (crabgrass; [3]): 0
Crabgrass plant response rating (crabgrass; [7]): 0
Plant response rating, Crabgrass (crabgrass; [8]): 8
Giant foxtail plant response rating (giant foxtail; [1]): 0
Giant foxtail plant response rating (giant foxtail; [4]): 3
Plant response rating, Giant foxtail (giant foxtail; [2]): 0
Plant response rating, Giant foxtail (giant foxtail; [6]): 9
Giant foxtail plant response rating (giant foxtail; [3]): 0
Giant foxtail plant response rating (giant foxtail; [7]): 0
Plant response rating, Giant foxtail (giant foxtail; [8]): 9
Morningglory plant response rating (morningglory; [1]): 0
Plant response rating, Morningglory (morningglory; [2]): 0
Plant response rating, Morningglory (morningglory; [6]): 0
Morningglory plant response rating (morningglory; [3]): 0
Morningglory plant response rating (morningglory; [7]): 7
Plant response rating, Morningglory (morningglory; [8]): 0
Redroot pigweed plant response rating (pigweed; [1]): 0
Redroot pigweed plant response rating (pigweed; [4]): 7
Plant response rating, Redroot pigweed (pigweed; [2]): 0
Plant response rating, Redroot pigweed (pigweed; [6]): 3
Redroot pigweed plant response rating (pigweed; [3]): 2
Redroot pigweed plant response rating (pigweed; [7]): 6
Plant response rating, Redroot pigweed (pigweed; [8]): 5
Rape plant response rating (rape; [1]): 0
Rape plant response rating (rape; [4]): 0
Plant response rating, Rape (rape; [2]): 0
Plant response rating, Rape (rape; [6]): 0
Rape plant response rating (rape; [3]): 0
Rape plant response rating (rape; [7]): 0
Plant response rating, Rape (rape; [8]): 0
Soybean plant response rating (soybean; [1]): 0
Plant response rating, Soybean (soybean; [2]): 0
Plant response rating, Soybean (soybean; [6]): 0
Soybean plant response rating (soybean; [3]): 0
Soybean plant response rating (soybean; [7]): 1
Plant response rating, Soybean (soybean; [8]): 0
Sugarbeets plant response rating (sugar beet; [1]): 0
Plant response rating, Sugarbeets (sugar beet; [2]): 0
Plant response rating, Sugarbeets (sugar beet; [6]): 0
Sugarbeets plant response rating (sugar beet; [3]): 0
Sugarbeets plant response rating (sugar beet; [7]): 0
Plant response rating, Sugarbeets (sugar beet; [8]): 0
Velvetleaf plant response rating (velvetleaf; [1]): 0
Plant response rating, Velvetleaf (velvetleaf; [2]): 0
Plant response rating, Velvetleaf (velvetleaf; [6]): 0
Velvetleaf plant response rating (velvetleaf; [3]): 0
Velvetleaf plant response rating (velvetleaf; [7]): 0
Plant response rating, Velvetleaf (velvetleaf; [8]): 0
Wheat plant response rating (wheat; [1]): 0
Plant response rating, Wheat (wheat; [2]): 0
Plant response rating, Wheat (wheat; [6]): 0
Wheat plant response rating (wheat; [3]): 0
Wheat plant response rating (wheat; [7]): 0
Plant response rating, Wheat (wheat; [8]): 0
Wild oats plant response rating (wild oat; [1]): 0
Plant response rating, Wild oats (wild oat; [2]): 0
Plant response rating, Wild oats (wild oat; [6]): 0
Wild oats plant response rating (wild oat; [3]): 0
Wild oats plant response rating (wild oat; [7]): 0
Plant response rating, Wild oats (wild oat; [8]): 3
Nutsedge plant response rating (purple nutsedge; [1]): 0
Plant response rating, Nutsedge (purple nutsedge; [2]): 0
Plant response rating, Nutsedge (purple nutsedge; [6]): 0
Nutsedge plant response rating (purple nutsedge; [3]): 0
Plant response rating, Nutsedge (purple nutsedge; [8]): 0
Rice plant response rating (rice; [9]): 0
Rice plant response rating (0 to 10 scale, 0 is no effect, 10 is complete control) (rice; [10]): 0
Rice plant response rating (rice; [11]): 0
Rice plant response rating (rice; [12]): 0
S. Flatsedge plant response rating (smallflower flatsedge; [9]): 0
S. Flatsedge plant response rating (0 to 10 scale, 0 is no effect, 10 is complete control) (smallflower flatsedge; [10]): 0
S. Flatsedge plant response rating (smallflower flatsedge; [11]): 0
S. Flatsedge plant response rating (smallflower flatsedge; [12]): 0
Ducksalad plant response rating (duck salad; [9]): 0
Ducksalad plant response rating (0 to 10 scale, 0 is no effect, 10 is complete control) (duck salad; [10]): 0
Ducksalad plant response rating (duck salad; [11]): 0
Ducksalad plant response rating (duck salad; [12]): 0
Barnyardgrass plant response rating (bamyardgrass; [9]): 0
Barnyardgrass plant response rating (0 to 10 scale, 0 is no effect, 10 is complete control) (bamyardgrass; [10]): 0
Barnyardgrass plant response rating (bamyardgrass; [11]): 0
Barnyardgrass plant response rating (bamyardgrass; [12]): 0

CC(C)N(C(=O)n1oc(=O)n(C(C)C2CC2)c1=O)c1ccccc1 (stereo not drawn) [Compound 699]
Bedstraw plant response rating (bedstraw; [13]): 0
Plant response rating, Bedstraw (bedstraw; [5]): 0
Plant response rating, Bedstraw (bedstraw; [6]): 0
Blackgrass plant response rating (blackgrass; [13]): 8
Plant response rating, Blackgrass (blackgrass; [2]): 10
Plant response rating, Blackgrass (blackgrass; [5]): 10
Plant response rating, Blackgrass (blackgrass; [6]): 10
B. signalgrass plant response rating (surinam grass; [13]): 8
Plant response rating, B. signalgrass (surinam grass; [2]): 9
Plant response rating, B. signalgrass (surinam grass; [5]): 9
Plant response rating, B. signalgrass (surinam grass; [6]): 10
Cocklebur plant response rating (cocklebur; [13]): 0
Plant response rating, Cocklebur (cocklebur; [2]): 0
Plant response rating, Cocklebur (cocklebur; [5]): 0
Plant response rating, Cocklebur (cocklebur; [6]): 0
Corn plant response rating (corn; [13]): 3
Plant response rating, Corn (corn; [2]): 6
Plant response rating, Corn (corn; [5]): 8
Crabgrass plant response rating (crabgrass; [13]): 10
Plant response rating, Crabgrass (crabgrass; [2]): 10
Plant response rating, Crabgrass (crabgrass; [5]): 10
Giant foxtail plant response rating (giant foxtail; [13]): 10
Plant response rating, Giant foxtail (giant foxtail; [2]): 10
Morningglory plant response rating (morningglory; [13]): 2
Plant response rating, Morningglory (morningglory; [2]): 4
Redroot pigweed plant response rating (pigweed; [13]): 3
Plant response rating, Redroot pigweed (pigweed; [2]): 3
Rape plant response rating (rape; [13]): 0
Plant response rating, Rape (rape; [2]): 2
Soybean plant response rating (soybean; [13]): 0
Plant response rating, Soybean (soybean; [2]): 2
Sugarbeets plant response rating (sugar beet; [13]): 3
Plant response rating, Sugarbeets (sugar beet; [2]): 4
Velvetleaf plant response rating (velvetleaf; [13]): 0
Plant response rating, Velvetleaf (velvetleaf; [2]): 2
Wheat plant response rating (wheat; [13]): 0
Plant response rating, Wheat (wheat; [2]): 3
Wild oats plant response rating (wild oat; [13]): 9
Plant response rating, Wild oats (wild oat; [2]): 10
Nutsedge plant response rating (purple nutsedge; [13]): 0
Plant response rating, Nutsedge (purple nutsedge; [2]): 0
Plant response rating, Rice (0 to 10 scale, 0 is no effect, 10 is complete control) (rice; [14]): 0
Rice plant response rating (0 to 10 scale, 0 is no effect, 10 is complete control) (rice; [10]): 0
Rice plant response rating (rice; [11]): 5
Rice plant response rating (rice; [12]): 4
Plant response rating, S. Flatsedge (0 to 10 scale, 0 is no effect, 10 is complete control) (smallflower flatsedge; [14]): 6
S. Flatsedge plant response rating (0 to 10 scale, 0 is no effect, 10 is complete control) (smallflower flatsedge; [10]): 7
S. Flatsedge plant response rating (smallflower flatsedge; [11]): 9
S. Flatsedge plant response rating (smallflower flatsedge; [12]): 8
Plant response rating, Ducksalad (0 to 10 scale, 0 is no effect, 10 is complete control) (duck salad; [14]): 3
Ducksalad plant response rating (0 to 10 scale, 0 is no effect, 10 is complete control) (duck salad; [10]): 8
Ducksalad plant response rating (duck salad; [11]): 9
Ducksalad plant response rating (duck salad; [12]): 9
Plant response rating, Barnyardgrass (0 to 10 scale, 0 is no effect, 10 is complete control) (bamyardgrass; [14]): 4
Barnyardgrass plant response rating (0 to 10 scale, 0 is no effect, 10 is complete control) (bamyardgrass; [10]): 4
Barnyardgrass plant response rating (bamyardgrass; [11]): 8
Barnyardgrass plant response rating (bamyardgrass; [12]): 8
